According to publication PMC9848300, “Discovery of novel enasidenib analogues targeting inhibition of mutant isocitrate dehydrogenase 2 as antileukaemic agents” (Journal of Enzyme Inhibition and Medicinal Chemistry, 2023):

What was measured:
Assay type in all cases: cell-based
RPMI-8226 = test: NCI 60 antitumor screening (single dose / five doses); settings: Homo sapiens; for inhibition at 10 µM: RPMI-8226 (leukaemia), single dose 10 μM, read-out: Growth inhibition percentage (GI %)
KM 12 = test: NCI 60 antitumor screening (single dose); settings: Homo sapiens, KM12; KM 12 (colon cancer), single dose 10 μM; read-out: Growth inhibition percentage (GI %)
How it was run: (§1)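 Values are GI% (100 minus percent growth, G%) from the NCI 60 cell line screen at one 10 μM concentration. Tests were done in triplicate under NCI protocol, with a mean across the whole panel reported as well.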

SF-268 = test: NCI 60 antitumor screening (single dose); settings: Homo sapiens; SF-268 (CNS cancer), single dose 10 μM; read-out: Growth inhibition percentage (GI %)
How it was run: (§2)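 Compounds were tested at a single 10 μM dose against the NCI 60-cell-line panel (nine tumour types), in triplicate. Growth was recorded as percent growth (G%) of treated cells, and growth inhibition was taken as GI% = 100 − G%.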

NCI-H322M = test: NCI 60 antitumor screening (single dose); settings: Homo sapiens; NCI-H322M (non-small cell lung cancer), single dose 10 μM; read-out: Growth inhibition percentage (GI %)
How it was run: as §1

OVCAR-5 = test: NCI 60 antitumor screening (single dose); settings: Homo sapiens; OVCAR-5 (ovarian cancer), single dose 10 μM; read-out: Growth inhibition percentage (GI %)
How it was run: as §2

OVCAR-8 = test: NCI 60 antitumor screening (single dose); settings: Homo sapiens; OVCAR-8 (ovarian cancer), single dose 10 μM; read-out: Growth inhibition percentage (GI %)
How it was run: as §1

MCF7 = test: NCI 60 antitumor screening (single dose); settings: Homo sapiens; MCF7 (breast cancer), single dose 10 μM; read-out: Growth inhibition percentage (GI %)
How it was run: as §1

HS 578T = test: NCI 60 antitumor screening (single dose); settings: Homo sapiens; HS 578T (breast cancer), single dose 10 μM; read-out: Growth inhibition percentage (GI %)
How it was run: as §1

SNB-19 = test: NCI 60 antitumor screening (single dose); settings: Homo sapiens; SNB-19 (CNS cancer), single dose 10 μM; read-out: Growth inhibition percentage (GI %)
How it was run: as §1

CAKI-1 = test: NCI 60 antitumor screening (single dose); settings: Homo sapiens; CAKI-1 (renal cancer), single dose 10 μM; read-out: Growth inhibition percentage (GI %)
How it was run: as §1

PC-3 = test: NCI 60 antitumor screening (single dose); settings: Homo sapiens; PC-3 (prostate cancer), single dose 10 μM; read-out: Growth inhibition percentage (GI %)
How it was run: as §1

NCI-H460 = test: NCI 60 antitumor screening (single dose); settings: Homo sapiens; NCI-H460 (non-small cell lung cancer), single dose 10 μM; read-out: Growth inhibition percentage (GI %)
How it was run: as §2

HOP-62 = test: NCI 60 antitumor screening (single dose); settings: Homo sapiens; HOP-62 (non-small cell lung cancer), single dose 10 μM; read-out: Growth inhibition percentage (GI %)
How it was run: as §2

M14 = test: NCI 60 antitumor screening (single dose); settings: Homo sapiens; M14 (melanoma), single dose 10 μM; read-out: Growth inhibition percentage (GI %)
How it was run: as §1

A549/ATCC = test: NCI 60 antitumor screening (single dose); settings: Homo sapiens; A549/ATCC (non-small cell lung cancer), single dose 10 μM; read-out: Growth inhibition percentage (GI %)
How it was run: as §1

U251 = test: NCI 60 antitumor screening (single dose); settings: Homo sapiens, U-251; U251 (CNS cancer), single dose 10 μM; read-out: Growth inhibition percentage (GI %)
How it was run: as §2

OVCAR-3 = test: NCI 60 antitumor screening (single dose); settings: Homo sapiens; OVCAR-3 (ovarian cancer), single dose 10 μM; read-out: Growth inhibition percentage (GI %)
How it was run: as §1

NCI-H522 = test: NCI 60 antitumor screening (single dose); settings: Homo sapiens; NCI-H522 (non-small cell lung cancer), single dose 10 μM; read-out: Growth inhibition percentage (GI %)
How it was run: as §2

NCI-H226 = test: NCI 60 antitumor screening (single dose); settings: Homo sapiens; NCI-H226 (non-small cell lung cancer), single dose 10 μM; read-out: Growth inhibition percentage (GI %)
How it was run: as §1

TK-10 = test: NCI 60 antitumor screening (single dose); settings: Homo sapiens; TK-10 (renal cancer), single dose 10 μM; read-out: Growth inhibition percentage (GI %)
How it was run: as §1

HCC-2998 = test: NCI 60 antitumor screening (single dose); settings: Homo sapiens; HCC-2998 (colon cancer), single dose 10 μM; read-out: Growth inhibition percentage (GI %)
How it was run: as §2

MALME-3M = test: NCI 60 antitumor screening (single dose / five doses); settings: Homo sapiens; for inhibition at 10 µM: MALME-3M (melanoma), single dose 10 μM, read-out: Growth inhibition percentage (GI %)
CCRF-CEM = test: as above; settings: Homo sapiens; CCRF-CEM (leukaemia), single dose 10 μM; read-out: Growth inhibition percentage (GI %)
SF-539 = test: as above; settings: Homo sapiens; for inhibition at 10 µM: SF-539 (CNS cancer), single dose 10 μM, read-out: Growth inhibition percentage (GI %)
K-562 = test: as above; settings: Homo sapiens, K562; for inhibition at 10 µM: K-562 (leukaemia), single dose 10 μM, read-out: Growth inhibition percentage (GI %)
ACHN = test: as above; settings: Homo sapiens; for inhibition at 10 µM: ACHN (renal cancer), single dose 10 μM, read-out: Growth inhibition percentage (GI %)
UACC-257 = test: as above; settings: Homo sapiens; for inhibition at 10 µM: UACC-257 (melanoma), single dose 10 μM, read-out: Growth inhibition percentage (GI %)

C(=N\Nc1nc(N/N=C/c2ccc3c(c2)OCO3)nc(N2CCCCC2)n1)/c1ccc2c(c1)OCO2 [compound 7k, 2,4-Bis[(E)-2-(2H-1,3-Benzodioxol-5-ylmethylidene)hydrazin-1-yl]-6-(piperidin-1-yl)-1,3,5-triazine]
inhibition at 10 µM (RPMI-8226): 43.8% | inhibition at 10 µM (KM 12): 13.8% | inhibition at 10 µM (SF-268): -0.46% | inhibition at 10 µM (NCI-H322M): 1.53% | inhibition at 10 µM (OVCAR-5): -18.2% | inhibition at 10 µM (OVCAR-8): 9.89% | inhibition at 10 µM (MCF7): 45.2% | inhibition at 10 µM (HS 578T): -4.09% | inhibition at 10 µM (SNB-19): 19.7% | inhibition at 10 µM (CAKI-1): 1.07% | inhibition at 10 µM (PC-3): 26.4% | inhibition at 10 µM (NCI-H460): 9.41% | inhibition at 10 µM (HOP-62): -22.5% | inhibition at 10 µM (M14): 2.72% | inhibition at 10 µM (A549/ATCC): 8.56% | inhibition at 10 µM (U251): 18.6% | inhibition at 10 µM (OVCAR-3): -5.21% | inhibition at 10 µM (NCI-H522): 8.07% | inhibition at 10 µM (NCI-H226): -0.61% | inhibition at 10 µM (TK-10): -21% | inhibition at 10 µM (HCC-2998): 16.2% | inhibition at 10 µM (MALME-3M): -20.2% | inhibition at 10 µM (CCRF-CEM): 79.6% | inhibition at 10 µM (SF-539): 12.4% | inhibition at 10 µM (K-562): 58.9% | inhibition at 10 µM (ACHN): 5.09% | inhibition at 10 µM (UACC-257): -7.99%

Fc1cccc(Cl)c1/C=N/Nc1nc(N/N=C/c2c(F)cccc2Cl)nc(N2CCCCC2)n1 [compound 7l, 2,4-Bis[(E)-2-[(2-Chloro-6-fluorophenyl)methylidene]hydrazin-1-yl]-6-(piperidin-1-yl)-1,3,5-triazine]
inhibition at 10 µM (RPMI-8226): 96.7% | GI50 (RPMI-8226; RPMI-8226, five doses (0.01–100 μM), read-out: GI50): 2.26 µM | inhibition at 10 µM (KM 12): 89.2% | inhibition at 10 µM (SF-268): 63.3% | inhibition at 10 µM (NCI-H322M): 64.2% | inhibition at 10 µM (OVCAR-5): 72.2% | inhibition at 10 µM (OVCAR-8): 74.2% | inhibition at 10 µM (MCF7): 96.9% | inhibition at 10 µM (HS 578T): 66.7% | inhibition at 10 µM (SNB-19): 74.2% | inhibition at 10 µM (CAKI-1): 85.9% | inhibition at 10 µM (PC-3): 81.3% | inhibition at 10 µM (NCI-H460): 80.1% | inhibition at 10 µM (HOP-62): 74.1% | inhibition at 10 µM (M14): 88.1% | inhibition at 10 µM (A549/ATCC): 78.4% | inhibition at 10 µM (U251): 73.2% | inhibition at 10 µM (OVCAR-3): 77.3% | inhibition at 10 µM (NCI-H522): 89.6% | inhibition at 10 µM (NCI-H226): 46.1% | inhibition at 10 µM (TK-10): 72.8% | inhibition at 10 µM (HCC-2998): 75.7% | inhibition at 10 µM (MALME-3M): 95.8% | GI50 (MALME-3M; MALME-3M, five doses (0.01–100 μM), read-out: GI50): 2.21 µM | inhibition at 10 µM (CCRF-CEM): 77.7% | inhibition at 10 µM (SF-539): 43.8% | GI50 (SF-539; SF-539, five doses (0.01–100 μM), read-out: GI50): 7.65 µM | inhibition at 10 µM (K-562): 67.7% | GI50 (K-562; K-562, five doses (0.01–100 μM), read-out: GI50): 3.08 µM | inhibition at 10 µM (ACHN): 95.8% | GI50 (ACHN; ACHN, five doses (0.01–100 μM), read-out: GI50): 3.04 µM | inhibition at 10 µM (UACC-257): 88.3% | GI50 (UACC-257; UACC-257, five doses (0.01–100 μM), read-out: GI50): 2.39 µM
